For assay [1], the system named is Phytophthora infestans (PHYTIN). In kind it is in vivo. To be noted: protective application, 7.2 ppm.
Assay [2] deals with Septoria tritici (SEPTTR). Format: in vivo. To be noted: protective application, 360 ppm.
For assay [3], the system named is Botrytis cinerea (BOTRCI). Nature of the assay: Fungal growth assay in 96 well plates. In kind it is cell-based. The following applies: evaluation 7 days after inoculation, OD 600 nm, about 18° C.; read-out: Fungal growth inhibition (IC50 [μM]) BOTRCI (7 d).
Assay [4] concerns Alternaria solani (ALTESO). Nature of the assay: Fungal growth assay in 96 well plates. Format: cell-based. The following applies: OD 600 nm, about 18° C.

Where two headings read alike, the source gives them in different places. Positions of bridges follow the written chain, without caps; N, C: chain ends. Non-standard residues stand in square brackets, D forms with d. Residues, ends and D or L forms follow the SMILES beside them. ξ: configuration not given here. *: point of attachment. Pentadecanoyl(3ξ-OH,15-Gua) = N=C(N)NCCCCCCCCCCCCC(O)CC(=O)*; Thr(3ξ) = CC(O)[C@H](N)C(=O)O; ξY = NC(Cc1ccc(O)cc1)C(=O)O

On to `CC1OC(=O)[C@@H](C)NC(=O)[C@@H](CCC(N)=O)NC(=O)[C@@H]([C@H](C)O)NC(=O)C(Cc2ccc(O)cc2)NC(=O)[C@@H](C(C)C)NC(=O)[C@H]1NC(=O)CC(O)CCCCCCCCCCCCN=C(N)N` (some centres unmarked) [Fusaricidin D, fusaricidin D] ({Pentadecanoyl(3ξ-OH,15-Gua)}-[Thr(3ξ)][dV][ξY][dT][dQ][dA]; ester 1-C), for which the “% efficacy (% fungal attack), late blight on tomato caused by Phytophthora infestans” value in assay [1] was found to be 0%. Besides, the “% efficacy (% fungal attack), head blight on wheat caused by Septoria tritici” value in assay [2] is on record as 50%. The IC50 in assay [3] stood at 0.5 µM; in assay [4] (evaluation 3 days after inoculation, read-out: Fungal growth inhibition (IC50 [μM]) ALTESO (3 d)) it was 1.1 µM; in assay [4] (evaluation 7 days after inoculation, read-out: Fungal growth inhibition (IC50 [μM]) ALTESO (7 d)), 0.6 µM.

As usually defined, the IC50 is the point on the concentration scale where inhibition reaches its midpoint.

These data come from patent US20250212891A1, “MIXTURES AND COMPOSITIONS COMPRISING PAENIBACILLUS STRAINS OR FUSARICIDINS AND CHEMICAL PESTICIDES” (BASF SE, priority 2016, published 2025).
